Assay results taken from ChEMBL document CHEMBL3044736, “Synthesis, characterization, solvatochromic properties, and antimicrobial evaluation of 5-acetyl-2-thioxo-dihydro-pyrimidine-4,6-dione-based chalcones” (2013).
≈ marks a conversion by molar mass, not a printed value.

Columns and labels:
Assay type in all cases: functional
Penicillium [1] = assay: Antimicrobial activity against Penicillium wild strain assessed as diameter of growth inhibition zone at 250 ug/ml after 48-96 hr by agar cup diffusion method; conditions: read-out: DIZ
Penicillium [2] = assay: Antimicrobial activity against Penicillium wild strain assessed as diameter of growth inhibition zone at 100 ug/ml after 48-96 hr by agar cup diffusion method; conditions: read-out: DIZ
Trichophyton rubrum [3] = assay: Antimicrobial activity against Trichophyton rubrum MTCC 296 assessed as diameter of growth inhibition zone at 100 ug/ml after 48-96 hr by agar cup diffusion method; conditions: read-out: DIZ
Aspergillus clavatus [4] = assay: Antimicrobial activity against Aspergillus clavatus MTCC 1323 assessed as diameter of growth inhibition zone at 100 ug/ml after 48-96 hr by agar cup diffusion method; conditions: read-out: DIZ
Candida albicans [5] = assay: Antimicrobial activity against Candida albicans MTCC 227 assessed as diameter of growth inhibition zone at 100 ug/ml after 48-96 hr by agar cup diffusion method; conditions: read-out: DIZ
Penicillium [6] = assay: Antimicrobial activity against Penicillium wild strain assessed as diameter of growth inhibition zone at 50 ug/ml after 48-96 hr by agar cup diffusion method; conditions: read-out: DIZ
Trichophyton rubrum [7] = assay: Antimicrobial activity against Trichophyton rubrum MTCC 296 assessed as diameter of growth inhibition zone at 50 ug/ml after 48-96 hr by agar cup diffusion method; conditions: read-out: DIZ
Aspergillus clavatus [8] = assay: Antimicrobial activity against Aspergillus clavatus MTCC 1323 assessed as diameter of growth inhibition zone at 50 ug/ml after 48-96 hr by agar cup diffusion method; conditions: read-out: DIZ
Candida albicans [9] = assay: Antimicrobial activity against Candida albicans MTCC 227 assessed as diameter of growth inhibition zone at 50 ug/ml after 48-96 hr by agar cup diffusion method; conditions: read-out: DIZ
Penicillium [10] = assay: Antimicrobial activity against Penicillium wild strain assessed as diameter of growth inhibition zone at 25 ug/ml after 48-96 hr by agar cup diffusion method; conditions: read-out: DIZ
Trichophyton rubrum [11] = assay: Antimicrobial activity against Trichophyton rubrum MTCC 296 assessed as diameter of growth inhibition zone at 25 ug/ml after 48-96 hr by agar cup diffusion method; conditions: read-out: DIZ
Aspergillus clavatus [12] = assay: Antimicrobial activity against Aspergillus clavatus MTCC 1323 assessed as diameter of growth inhibition zone at 25 ug/ml after 48-96 hr by agar cup diffusion method; conditions: read-out: DIZ
Candida albicans [13] = assay: Antimicrobial activity against Candida albicans MTCC 227 assessed as diameter of growth inhibition zone at 25 ug/ml after 48-96 hr by agar cup diffusion method; conditions: read-out: DIZ
Penicillium [14] = assay: Antimicrobial activity against Penicillium wild strain by agar cup diffusion method
Aspergillus clavatus [15] = assay: Antimicrobial activity against Aspergillus clavatus MTCC 1323 by agar cup diffusion method
Pseudomonas aeruginosa [16] = assay: Antimicrobial activity against Pseudomonas aeruginosa MTCC 1688 assessed as diameter of growth inhibition zone at 25 ug/ml after 18-24 hr by agar cup diffusion method; conditions: read-out: DIZ
Escherichia coli [17] = assay: Antimicrobial activity against Escherichia coli MTCC 443 assessed as diameter of growth inhibition zone at 25 ug/ml after 18-24 hr by agar cup diffusion method; conditions: read-out: DIZ
Staphylococcus aureus [18] = assay: Antimicrobial activity against Staphylococcus aureus MTCC 96 assessed as diameter of growth inhibition zone at 25 ug/ml after 18-24 hr by agar cup diffusion method; conditions: read-out: DIZ
Streptococcus pyogenes [19] = assay: Antimicrobial activity against Streptococcus pyogenes MTCC 442 assessed as diameter of growth inhibition zone at 25 ug/ml after 18-24 hr by agar cup diffusion method; conditions: read-out: DIZ
Klebsiella pneumoniae [20] = assay: Antimicrobial activity against Klebsiella pneumoniae MTCC 109 by agar cup diffusion method
Escherichia coli [21] = assay: Antimicrobial activity against Escherichia coli MTCC 443 by agar cup diffusion method
Pseudomonas aeruginosa [22] = assay: Antimicrobial activity against Pseudomonas aeruginosa MTCC 1688 by agar cup diffusion method
Staphylococcus aureus [23] = assay: Antimicrobial activity against Staphylococcus aureus MTCC 96 by agar cup diffusion method
Streptococcus pyogenes [24] = assay: Antimicrobial activity against Streptococcus pyogenes MTCC 442 by agar cup diffusion method
Trichophyton rubrum [25] = assay: Antimicrobial activity against Trichophyton rubrum MTCC 296 by agar cup diffusion method
Candida albicans [26] = assay: Antimicrobial activity against Candida albicans MTCC 227 by agar cup diffusion method
Klebsiella pneumoniae [27] = assay: Antimicrobial activity against Klebsiella pneumoniae MTCC 109 assessed as diameter of growth inhibition zone at 250 ug/ml after 18-24 hr by agar cup diffusion method; conditions: read-out: DIZ
Pseudomonas aeruginosa [28] = assay: Antimicrobial activity against Pseudomonas aeruginosa MTCC 1688 assessed as diameter of growth inhibition zone at 250 ug/ml after 18-24 hr by agar cup diffusion method; conditions: read-out: DIZ
Escherichia coli [29] = assay: Antimicrobial activity against Escherichia coli MTCC 443 assessed as diameter of growth inhibition zone at 250 ug/ml after 18-24 hr by agar cup diffusion method; conditions: read-out: DIZ
Staphylococcus aureus [30] = assay: Antimicrobial activity against Staphylococcus aureus MTCC 96 assessed as diameter of growth inhibition zone at 250 ug/ml after 18-24 hr by agar cup diffusion method; conditions: read-out: DIZ
Streptococcus pyogenes [31] = assay: Antimicrobial activity against Streptococcus pyogenes MTCC 442 assessed as diameter of growth inhibition zone at 250 ug/ml after 18-24 hr by agar cup diffusion method; conditions: read-out: DIZ
Klebsiella pneumoniae [32] = assay: Antimicrobial activity against Klebsiella pneumoniae MTCC 109 assessed as diameter of growth inhibition zone at 100 ug/ml after 18-24 hr by agar cup diffusion method; conditions: read-out: DIZ
Pseudomonas aeruginosa [33] = assay: Antimicrobial activity against Pseudomonas aeruginosa MTCC 1688 assessed as diameter of growth inhibition zone at 100 ug/ml after 18-24 hr by agar cup diffusion method; conditions: read-out: DIZ
Escherichia coli [34] = assay: Antimicrobial activity against Escherichia coli MTCC 443 assessed as diameter of growth inhibition zone at 100 ug/ml after 18-24 hr by agar cup diffusion method; conditions: read-out: DIZ
Staphylococcus aureus [35] = assay: Antimicrobial activity against Staphylococcus aureus MTCC 96 assessed as diameter of growth inhibition zone at 100 ug/ml after 18-24 hr by agar cup diffusion method; conditions: read-out: DIZ
Streptococcus pyogenes [36] = assay: Antimicrobial activity against Streptococcus pyogenes MTCC 442 assessed as diameter of growth inhibition zone at 100 ug/ml after 18-24 hr by agar cup diffusion method; conditions: read-out: DIZ
Klebsiella pneumoniae [37] = assay: Antimicrobial activity against Klebsiella pneumoniae MTCC 109 assessed as diameter of growth inhibition zone at 50 ug/ml after 18-24 hr by agar cup diffusion method; conditions: read-out: DIZ
Pseudomonas aeruginosa [38] = assay: Antimicrobial activity against Pseudomonas aeruginosa MTCC 1688 assessed as diameter of growth inhibition zone at 50 ug/ml after 18-24 hr by agar cup diffusion method; conditions: read-out: DIZ
Escherichia coli [39] = assay: Antimicrobial activity against Escherichia coli MTCC 443 assessed as diameter of growth inhibition zone at 50 ug/ml after 18-24 hr by agar cup diffusion method; conditions: read-out: DIZ
Staphylococcus aureus [40] = assay: Antimicrobial activity against Staphylococcus aureus MTCC 96 assessed as diameter of growth inhibition zone at 50 ug/ml after 18-24 hr by agar cup diffusion method; conditions: read-out: DIZ
Streptococcus pyogenes [41] = assay: Antimicrobial activity against Streptococcus pyogenes MTCC 442 assessed as diameter of growth inhibition zone at 50 ug/ml after 18-24 hr by agar cup diffusion method; conditions: read-out: DIZ
Klebsiella pneumoniae [42] = assay: Antimicrobial activity against Klebsiella pneumoniae MTCC 109 assessed as diameter of growth inhibition zone at 25 ug/ml after 18-24 hr by agar cup diffusion method; conditions: read-out: DIZ
Trichophyton rubrum [43] = assay: Antimicrobial activity against Trichophyton rubrum MTCC 296 assessed as diameter of growth inhibition zone at 250 ug/ml after 48-96 hr by agar cup diffusion method; conditions: read-out: DIZ
Aspergillus clavatus [44] = assay: Antimicrobial activity against Aspergillus clavatus MTCC 1323 assessed as diameter of growth inhibition zone at 250 ug/ml after 48-96 hr by agar cup diffusion method; conditions: read-out: DIZ
Candida albicans [45] = assay: Antimicrobial activity against Candida albicans MTCC 227 assessed as diameter of growth inhibition zone at 250 ug/ml after 48-96 hr by agar cup diffusion method; conditions: read-out: DIZ

O=C(/C=C/c1ccc([N+](=O)[O-])cc1)C1C(=O)NC(=S)NC1=O
zone of inhibition at 250 µg/mL (Penicillium [1]): 25 mm
zone of inhibition at 100 µg/mL (Penicillium [2]): 23 mm
zone of inhibition at 100 µg/mL (Trichophyton rubrum [3]): 23 mm
zone of inhibition at 100 µg/mL (Aspergillus clavatus [4]): 22 mm
zone of inhibition at 100 µg/mL (Candida albicans [5]): 25 mm
zone of inhibition at 50 µg/mL (Penicillium [6]): 21 mm
zone of inhibition at 50 µg/mL (Trichophyton rubrum [7]): 22 mm
zone of inhibition at 50 µg/mL (Aspergillus clavatus [8]): 21 mm
zone of inhibition at 50 µg/mL (Candida albicans [9]): 21 mm
zone of inhibition at 25 µg/mL (Penicillium [10]): 21 mm
zone of inhibition at 25 µg/mL (Trichophyton rubrum [11]): 20 mm
zone of inhibition at 25 µg/mL (Aspergillus clavatus [12]): 20 mm
zone of inhibition at 25 µg/mL (Candida albicans [13]): 20 mm
MFC (Penicillium [14]): 500 µg/mL (≈ 1570 µM)
MIC (Penicillium [14]): 500 µg/mL (≈ 1570 µM)
MFC (Aspergillus clavatus [15]): 1000 µg/mL (≈ 3130 µM)
MIC (Aspergillus clavatus [15]): 1000 µg/mL (≈ 3130 µM)
zone of inhibition at 25 µg/mL (Pseudomonas aeruginosa [16]): 11 mm
zone of inhibition at 25 µg/mL (Escherichia coli [17]): 12 mm
zone of inhibition at 25 µg/mL (Staphylococcus aureus [18]): 11 mm
zone of inhibition at 25 µg/mL (Streptococcus pyogenes [19]): 12 mm
MBC (Klebsiella pneumoniae [20]): 200 µg/mL (≈ 626 µM)
MIC (Klebsiella pneumoniae [20]): 200 µg/mL (≈ 626 µM)
MBC (Escherichia coli [21]): 500 µg/mL (≈ 1570 µM)
MIC (Escherichia coli [21]): 250 µg/mL (≈ 783 µM)
MBC (Pseudomonas aeruginosa [22]): 250 µg/mL (≈ 783 µM)
MIC (Pseudomonas aeruginosa [22]): 250 µg/mL (≈ 783 µM)
MBC (Staphylococcus aureus [23]): 200 µg/mL (≈ 626 µM)
MIC (Staphylococcus aureus [23]): 125 µg/mL (≈ 391 µM)
MBC (Streptococcus pyogenes [24]): 100 µg/mL (≈ 313 µM)
MIC (Streptococcus pyogenes [24]): 100 µg/mL (≈ 313 µM)
MFC (Trichophyton rubrum [25]): 1000 µg/mL (≈ 3130 µM)
MIC (Trichophyton rubrum [25]): 1000 µg/mL (≈ 3130 µM)
MFC (Candida albicans [26]): 1000 µg/mL (≈ 3130 µM)
MIC (Candida albicans [26]): 1000 µg/mL (≈ 3130 µM)
zone of inhibition at 250 µg/mL (Klebsiella pneumoniae [27]): 16 mm
zone of inhibition at 250 µg/mL (Pseudomonas aeruginosa [28]): 20 mm
zone of inhibition at 250 µg/mL (Escherichia coli [29]): 23 mm
zone of inhibition at 250 µg/mL (Staphylococcus aureus [30]): 20 mm
zone of inhibition at 250 µg/mL (Streptococcus pyogenes [31]): 23 mm
zone of inhibition at 100 µg/mL (Klebsiella pneumoniae [32]): 15 mm
zone of inhibition at 100 µg/mL (Pseudomonas aeruginosa [33]): 18 mm
zone of inhibition at 100 µg/mL (Escherichia coli [34]): 19 mm
zone of inhibition at 100 µg/mL (Staphylococcus aureus [35]): 18 mm
zone of inhibition at 100 µg/mL (Streptococcus pyogenes [36]): 19 mm
zone of inhibition at 50 µg/mL (Klebsiella pneumoniae [37]): 13 mm
zone of inhibition at 50 µg/mL (Pseudomonas aeruginosa [38]): 13 mm
zone of inhibition at 50 µg/mL (Escherichia coli [39]): 15 mm
zone of inhibition at 50 µg/mL (Staphylococcus aureus [40]): 13 mm
zone of inhibition at 50 µg/mL (Streptococcus pyogenes [41]): 15 mm
zone of inhibition at 25 µg/mL (Klebsiella pneumoniae [42]): 11 mm
zone of inhibition at 250 µg/mL (Trichophyton rubrum [43]): 25 mm
zone of inhibition at 250 µg/mL (Aspergillus clavatus [44]): 24 mm
zone of inhibition at 250 µg/mL (Candida albicans [45]): 25 mm
